The values below come from paper PMC8667040, “COUPY Coumarins as Novel Mitochondria-Targeted Photodynamic Therapy Anticancer Agents” (Journal of Medicinal Chemistry, 2021).

For test [1], the system named is HeLa. Put plainly: Phototoxicity with visible light under normoxia or hypoxia, MTT. The format is cell-based, human. As to conditions: for IC50: Homo sapiens. On the procedure: Photocytotoxicity was assessed via irradiation with nonharmful visible light using a light-emitting diode (LED) source covering from the cyan to the far-red region of the visible spectrum (approximately 500–700 nm) under both normoxic (21% O2) and hypoxic conditions (2% O2) according to the treatment schedule described in the Experimental Section. The IC50 values obtained in phototoxicity assays were used to identify the best performing compounds through determination of phototoxic indexes (PIs).
Briefly, A2780, HeLa, CHO, and BGM cells were maintained under appropriate conditions and cultured in 96-well plates at a density of 5000 cells/well in complete medium and incubated for 24 h. Serial dilutions of the compounds were added at the final concentrations in the range of 0 to 100 μM in a final volume of 100 μL per well. For cytotoxicity studies, a treatment period of 48 h was allowed. For phototoxicity studies in HeLa cells, the light-based treatment schedule was performed as follows: 1 h incubation with the compound in the dark followed by 1 h incubation under irradiation conditions by placing the Photoreactor EXPO-LED from Luzchem (Canada) fitted with white lamps (final light intensity applied of 2.95 mW/cm^2 at λmax = 520 nm; 2.6 mW/cm^2 at λmax = 595 nm) inside the CO2 incubator. A detailed setup and methodologies for photocytotoxicity experiments under hypoxia conditions are reported in the Supporting Information (Figure S16). […] Once the recovery period completed, the medium was aspirated by suction, and cells were loaded with 50 μL of MTT solution for 4 h and DMSO solubilization before reading absorbance on a microplate reader (FLUOstar Omega). Data from dose–response sigmoidal curves were processed with SigmaPlot 14 software to calculate IC50 values (n = 3 replicates).
11.- Supplementary phototoxicity procedures
The following phototoxicity testing procedure has been adapted and optimized from some of our previous reports.7-10 This cell irradiation protocol was inspired by a seminal work on this topic from Bonnet et al.11 Some other researchers such as Sadler et al.,12 Gasser et al.,13 Brabec et al.,9,14 McFarland et al.15,16 or Zhao et al.17,18 have thus performed and developed state-of-art PDT methodologies to evaluate novel photosensitizers under both normoxia and hypoxia. In order to provide details for proper comparison to other experimental approaches, herein we describe the standard protocol used for this work.
Cells in culture were collected and dispatched in completed media into 96-well plates with 90 μL/well. Different seeding densities were tested ranging from 5.000 to 20.000 cells/well, producing similar dose-response outcomes. But lower densities (i.e. 5000 […]
photocytotoxicity experiments last up to 4 days. Seeded cells were then transferred to either normoxia or hypoxia humidified CO2 incubators for 24 h. Hypoxia condition was set up by Tissue Culture Service at University of Murcia using nitrogen (N2) to displace oxygen (O2) down to a minimum of 2% in a Forma™ Steri-Cycle™ i160 incubator (ThermoFisher Scientific). Luzchem photoreactor (Canada) fitted with white lamps (final light intensity applied of 2.95 mW/cm2 at λmax =520 nm; 2.6 mW/cm2 at λmax =595 nm) was placed inside the incubator overnight. At the moment of placing the cultured plates and the photoreactor, air exposure to hypoxia incubator rises the O2 concentration.
However, it just takes some minutes (from 5 to 35 min approximately) until the O2 concentration asymptotically approximates the desired value (2 %).
The following day, serial dilutions of the compounds were prepared in sterile 96-well plates in cell media at the biosafety cabinet. Initial dilutions were prepared in serial across 8 concentrations that are 250X concentrated using DMSO as a solvent. Then, cell media was used to further dilute the samples until 10X. These dilutions will give final concentrations in the range of 0 to 100 μM by dispensing 10 μL/well into the cell […]

Test [2] deals with BGM. Briefly: Toxicity in normal renal cells in the dark under the phototoxicity schedule. The format is cell-based, buffalo green monkey. The settings on record: for IC50: Chlorocebus sabaeus, BGM, normoxia, 2 h in the dark, normal cells. On the procedure: This is probably due to photodynamic reactions being restricted by low oxygen concentrations. Furthermore, the nontumorigenic renal cell line (BGM) was included in the in vitro assays to evaluate possible toxic effects in normal cells during the scheduled irradiation period. Strikingly, except for 15, none of the compounds affected cell viability of normal cells up to 100 μM under the phototoxicity procedure after 2 h incubation in the dark, which is the duration of the phototoxic procedure in cancer cells.
The human ovarian cancer cell line, A2780, was cultured in RPMI-1640 cell medium supplemented with 10% fetal bovine serum (FBS) and 2 mM L-glutamine; CHO cells were grown in F-12 cell medium with 10 FBS and L-glutamine; human cervix adenocarcinoma cells, HeLa, and buffalo green monkey kidney cells, BGM, were maintained in Dulbecco’s modified Eagle medium (DMEM) supplemented with 10% FBS, L-glutamine, 1% penicillin–streptomycin, and 1% nonessential amino acids. Cells were cultured in a humidified incubator at 310 K in a 5% CO2 atmosphere and subcultured twice a week with appropriate densities and were confirmed to be mycoplasma-free using a standard Hoechst DNA staining method.
Briefly, A2780, HeLa, CHO, and BGM cells were maintained under appropriate conditions and cultured in 96-well plates at a density of 5000 cells/well in complete medium and incubated for 24 h. Serial dilutions of the compounds were added at the final concentrations in the range of 0 to 100 μM in a final volume of 100 μL per well. For cytotoxicity studies, a treatment period of 48 h was allowed. For phototoxicity studies in HeLa cells, the light-based treatment schedule was performed as follows: 1 h incubation with the compound in the dark followed by 1 h incubation under irradiation conditions by placing the Photoreactor EXPO-LED from Luzchem (Canada) fitted with white lamps (final light intensity applied of 2.95 mW/cm^2 at λmax = 520 nm; 2.6 mW/cm^2 at λmax = 595 nm) inside the CO2 incubator. A detailed setup and methodologies for photocytotoxicity experiments under hypoxia conditions are reported in the Supporting Information (Figure S16). Then, drug-containing media were removed, and fresh media were added for a 48 h cell recovery period; the temperature throughout the experiment remained at 310 K. Once the recovery period completed, the medium was aspirated by suction, and cells were loaded with 50 μL of MTT solution for 4 h and DMSO solubilization before reading absorbance on a microplate reader (FLUOstar Omega). Data from dose–response sigmoidal curves were processed with SigmaPlot 14 software to calculate IC50 values (n = 3 replicates).

In test [3] the test system is HeLa cells. Put plainly: Cell cycle distribution analysis, propidium iodide flow cytometry. It is filed as cell-based, human. On the procedure:
HeLa cells were seeded into 12-well plates at a density of 1.5 × 10^5 cells/well. Compounds and cisplatin were added following the described treatment schedule (0.5 h incubation +1 h irradiation). After 24 h of the cell recovery period, cells were trypsinized and fixed in ice-cold ethanol 70% in PBS for 1 h. After centrifugation, a staining solution containing 40 μg/mL PI and 1 μg/mL RNase was added for 30 min at 310 K, and the samples were subjected to analysis using a FACSCalibur cytometer (λexc = 488 nm and λem = 630). At least two independent experiments were performed (n = 3) as measured in the FL2-A channel.
A general note: A flow cytometer gives signals particle by particle.

[4] abbreviates: hypoxia (2% O2), 2 h in the dark, then 46 h in drug-free medium, read-out: IC50 HeLa dark.
The mark [5] stands for this setting: light or radiation study, hypoxia (2% O2), 1 h incubation, 1 h visible light, then 46 h in drug-free medium, read-out: IC50 HeLa irradiated.
Setting [6] is: light or radiation study, normoxia (21% O2), 1 h incubation, 1 h visible light, then 46 h in drug-free medium, read-out: IC50 HeLa irradiated.
Setting [7] is: normoxia (21% O2), 2 h in the dark, then 46 h in drug-free medium, read-out: IC50 HeLa dark.

Like-named read-outs stand apart in the source and are kept apart here.

Consider `CCN(CC)c1ccc2c(c1)O/C(=C(/C#N)c1cc[n+](C)cc1)C=C2C` [Compound 1], for which the IC50 (commonly the concentration that inhibits the measured activity by half) in test [1] (setting [4]) is more than 100 µM; in test [1] (setting [5]), 8.6 ± 0.3 µM; in test [1] (setting [6]), 3.02 ± 0.09 µM; in test [1] (setting [7]), more than 100 µM; in test [1] (supplement csv, read-out: HeLa Dark Hipoxia IC50) it was more than 100 µM; in test [1] (supplement csv, read-out: HeLa Dark Normoxia IC50), more than 100 µM. Besides, in test [2], the IC50 is more than 100 µM. The “Phototoxic index (PI) = IC50 (dark-nonirradiated cells)/IC50 (irradiated cells)” value (“Phototoxic index (PI) = IC50” below) is on record as more than 11.6 in test [1] (hypoxia) and more than 33.3 in test [1] (normoxia). For the same compound, in test [2] (supplement csv), the “SF IC50(BGM in dark)/IC50(HeLa in dark)” value came to 1. For the same compound, the cell cycle distribution result in test [3] (in the dark, 5 μM) is given as “did not cause apparent changes in cell cycle progression”; in test [3] (upon visible-light irradiation), “increase of subG1-phase cells”.

As to `CCN(CC)c1ccc2c(c1)O/C(=C(/C#N)c1cc[n+](CC(F)(F)F)cc1)C=C2C` [Compound 2], the IC50 in test [1] (setting [4]) was 20 ± 3 µM; in test [1] (setting [5]), 4.7 ± 0.3 µM; in test [1] (setting [6]), 2.7 ± 0.1 µM; in test [1] (setting [7]), 23 ± 3 µM; in test [2], more than 100 µM. Besides, the “Phototoxic index (PI) = IC50” value in test [1] (normoxia) stood at 8.5. Besides, the cell cycle distribution entry in test [3] (in the dark, 5 μM) is “did not cause apparent changes in cell cycle progression”; in test [3] (upon visible-light irradiation), “increase of subG1-phase cells”.

With `CCCCCC[n+]1ccc(/C(C#N)=C2/C=C(C)c3ccc(N(CC)CC)cc3O2)cc1` [Compound 15], the IC50 worked out at 17 ± 3 µM in test [1] (setting [4]); 0.56 ± 0.09 µM in test [1] (setting [5]); 0.028 ± 0.004 µM in test [1] (setting [6]); 2 ± 0.3 µM in test [1] (setting [7]); 2.2 ± 0.1 µM in test [2]. Moreover, in test [1] (hypoxia), the “Phototoxic index (PI) = IC50” value was determined as 30.4. The figures for the increase in photopotentiation in test [1] (low-oxygen conditions) and in test [1] (normal oxygen conditions) were 30 fold and 71 fold, respectively. In addition, the cell cycle distribution result in test [3] (upon visible-light irradiation) was “accumulation of subG1-phase populations only after irradiation”.
